According to US4005213A, “2,5-Substituted-1,3,4-thiadiazoles as fungicides” (Schering Aktiengesellschaft, priority 1968, dated 1977):

What was measured:
Pythium ultimum [1] = assay: Limit concentration of soil-fungicidal effectiveness, Pythium ultimum infested soil, peas (Example 1); assay type: in vivo; details: 20 to 23 days, 22°-25° C., germination at least 90% vs steamed soil; for minimal effective concentration: Globisporangium ultimum
Protocol: Limit concentrations of the soil-fungicidal effectiveness at homogeneous mixture of the products with the infested soil. Basic condition in the evaluation are a sound root formation without fungus necroses and germination of the seed of at least 90% compared with the result obtained in steamed soil. Per concentration there were seeded 25 grains of peas of the variety "Miracle of Kelvedon" (marrow pea) without a waiting period. the cultivation time in the tests was 20 to 23 days at a temperature of 22°-25° C. Four commercial products were included in the test series.
Pythium ultimum: Steamed compost soil was inoculated with mycelium of Pythium ultimum

Stemphylium ilicis = assay: Agar test, Stemphylium ilicis (Example 7); assay type: cell-based; details: 10 ppm in malt extract agar, 5 days at 22° C.; control 100
Protocol: (§1) The fungicidal action of the agents according to the invention was tested in artificial nutrient media against plant-pathogenic fungi in Petri dishes (agar test). The procedure was to sterilize the medium consisting of 2% malt extract and 1.5% agar-agar powder. Before the solidification of the medium, the active substances were added to it, mixing thoroughly, so that the medium received 10 parts of active substance per million (ppm). After the solidification of the medium, the latter was inoculated with a platinum dropper which contained 100 spores each of the fungi to be tested, and after 5 days at 22° C., an evaluation was made by measuring the diameter of the colonies in mm.

Aspergillus niger = assay: Agar test, Aspergillus niger (Example 7); assay type: cell-based; details: 10 ppm in malt extract agar, 5 days at 22° C.; control 100
Protocol: as §1

Pythium ultimum [2] = assay: Pea test in soil inoculated with Pythium ultimum (Example 2); assay type: in vivo; design: key to Root evaluation (1-4): 4 = white roots, no necroses … 1 = severe necroses, roots rotted; details: for Root evaluation (1-4): 3 weeks
Protocol: Steamed compost soil was inoculated with mycelium of Pythium ultimum. […] The following table lists the number of germinated sound peas, the weight of the fresh plant, and a root evaluation after a cultivation period of 3 weeks at 22°-25° C.
4 = white roots, without fungus necroses
3 = white roots, slight fungus necroses
2 = brown roots, more intense fungus necroses
1 = severe fungus necroses, roots rotted

Rhizoctonia solani = assay: Pea test in soil inoculated with Rhizoctonia solani (Example 3); assay type: in vivo; details: for Root evaluation (1-4): 3 weeks; for Number of sound peas after 3 wks.: 25 grains seeded
Source text: Steamed compost soil was inoculated with mycelium of Rhizoctonia solani. After homogeneous mixture of the products with the infested soil, the products were present in the form of 20% powder preparations, the seeding of 25 grains of marrow peas of the variety Miracle of Kelvedon per concentration was effected without waiting period in clay dishes holding 1 liter of soil. The table lists the number of germinated sound peas, the weight of the fresh plant, and a root evaluation after a cultivation period of 3 weeks at 22°-25° C.

[3] = 10 mg active ingr. per liter of soil
[4] = 20 mg active ingr. per liter of soil
[5] = 30 mg active ingr. per liter of soil
[6] = 50 mg active ingr. per liter of soil
[7] = 100 mg active ingr. per liter of soil

Compound	minimal effective concentration (Pythium ultimum [1])	further results
C[S+]([O-])c1nnc(CCl)s1 (stereo not shown) [Compound 2, 2-chloromethyl-5-methylsulfinyl-1,3,4-thiadiazole]	30 µg/mL	
CC(C)[S+]([O-])c1nnc(C(Cl)Cl)s1 (stereo not shown) [Compound 6, 2-dichloromethyl-5-isopropylsulfinyl-1,3,4-thiadiazole]	> 200 µg/mL	
CCCCC[S+]([O-])c1nnc(C(Cl)Cl)s1 (stereo not shown) [Compound 7, 2-dichloromethyl-5-amylsulfinyl 1,3,4-thiadiazole]	> 200 µg/mL	diameter of the colonies, Stemphylium ilicis (Stemphylium ilicis): 0 mm; diameter of the colonies, Aspergillus niger (Aspergillus niger): 0 mm
CCC[S+]([O-])c1nnc(C(Cl)(Cl)Cl)s1 (stereo not shown) [Compound 10, 2-trichloromethyl-5-propylsulfinyl-1,3,4-thiadiazole]	100 µg/mL	diameter of the colonies, Stemphylium ilicis (Stemphylium ilicis): 0 mm; diameter of the colonies, Aspergillus niger (Aspergillus niger): 0 mm
CC(C)[S+]([O-])c1nnc(C(Cl)(Cl)Cl)s1 (stereo not shown) [Compound 11, 2-trichloromethyl-5-isopropylsulfinyl-1,3,4-thiadiazole]	> 200 µg/mL	
CCCC[S+]([O-])c1nnc(C(Cl)(Cl)Cl)s1 (stereo not shown) [Compound 12, 2-trichloromethyl-5-butylsulfinyl-1,3,4-thiadiazole]	200 µg/mL	diameter of the colonies, Stemphylium ilicis (Stemphylium ilicis): 0 mm; diameter of the colonies, Aspergillus niger (Aspergillus niger): 0 mm
CCCCCCC[S+]([O-])c1nnc(C(Cl)(Cl)Cl)s1 (stereo not shown) [Compound 13, 2-trichloromethyl-5-heptylsulfinyl-1,3,4-thiadiazole]	> 200 µg/mL	diameter of the colonies, Stemphylium ilicis (Stemphylium ilicis): 0 mm; diameter of the colonies, Aspergillus niger (Aspergillus niger): 0 mm
CCCCCCCC[S+]([O-])c1nnc(C(Cl)(Cl)Cl)s1 (stereo not shown) [Compound 14, 2-trichloromethyl-5-octylsulfinyl-1,3,4-thiadiazole]	> 200 µg/mL	
CS(=O)(=O)c1nnc(CCl)s1 [Compound 15, 2-chloromethyl-5-methylsulfonyl-1,3,4-thiadiazole]	10 µg/mL	Root evaluation (1-4) (Pythium ultimum [2]; [3]): 4; Root evaluation (1-4) (Pythium ultimum [2]; [4]): 4; Root evaluation (1-4) (Pythium ultimum [2]; [5]): 4
CC(C)S(=O)(=O)c1nnc(CCl)s1 [Compound 16, 2-chloromethyl-5-isopropylsulfonyl-1,3,4-thiadiazole]	150 µg/mL	
CC(C)S(=O)(=O)c1nnc(C(Cl)Cl)s1 [Compound 20, 2-dochloromethyl-5-isopropylsulfonyl-1,3,4-thiadiazole]	200 µg/mL	
CCS(=O)(=O)c1nnc(C(Cl)(Cl)Cl)s1 [Compound 22, 2-trichloromethyl-5-ethylsulfonyl-1,3,4-thiadiazole]	50 µg/mL	diameter of the colonies, Stemphylium ilicis (Stemphylium ilicis): 0 mm; diameter of the colonies, Aspergillus niger (Aspergillus niger): 0 mm
CC(C)S(=O)(=O)c1nnc(C(Cl)(Cl)Cl)s1 [Compound 24, 2-trichloromethyl-5-isopropylsulfonyl-1,3,4-thiadiazole]	150 µg/mL	diameter of the colonies, Stemphylium ilicis (Stemphylium ilicis): 0 mm; diameter of the colonies, Aspergillus niger (Aspergillus niger): 0 mm
CCCCS(=O)(=O)c1nnc(C(Cl)(Cl)Cl)s1 [Compound 25, 2-trichloromethyl-5-butylsulfonyl-1,3,4-thiadiazole]	> 200 µg/mL	diameter of the colonies, Stemphylium ilicis (Stemphylium ilicis): 0 mm; diameter of the colonies, Aspergillus niger (Aspergillus niger): 0 mm
CCCCCS(=O)(=O)c1nnc(C(Cl)(Cl)Cl)s1 [Compound 26, 2-trichloromethyl-5-amylsulfonyl-1,3,4-thiadiazole]	> 200 µg/mL	diameter of the colonies, Stemphylium ilicis (Stemphylium ilicis): 0 mm; diameter of the colonies, Aspergillus niger (Aspergillus niger): 0 mm
CCCCCCS(=O)(=O)c1nnc(C(Cl)(Cl)Cl)s1 [Compound 27, 2-trichloromethyl-5-hexylsulfonyl-1,3,4-thiadiazole]	> 200 µg/mL	diameter of the colonies, Stemphylium ilicis (Stemphylium ilicis): 0 mm; diameter of the colonies, Aspergillus niger (Aspergillus niger): 0 mm
CCCCCCCS(=O)(=O)c1nnc(C(Cl)(Cl)Cl)s1 [Compound 28, 2-trichloromethyl-5-heptysulfonyl-1,3,4-thiadiazole]	> 200 µg/mL	diameter of the colonies, Stemphylium ilicis (Stemphylium ilicis): 0 mm; diameter of the colonies, Aspergillus niger (Aspergillus niger): 0 mm
CCCCCCCCS(=O)(=O)c1nnc(C(Cl)(Cl)Cl)s1 [Compound 29, 2-trichloromethyl-5-octylsulfonyl-1,3,4-thiadiazole]	> 200 µg/mL	diameter of the colonies, Stemphylium ilicis (Stemphylium ilicis): 0 mm; diameter of the colonies, Aspergillus niger (Aspergillus niger): 19 mm
CS(=O)(=O)c1nnc(CBr)s1 [Compound 30, 2-bromomethyl-5-methylsulfonyl-1,3,4-thiadiazole]	20 µg/mL	Root evaluation (1-4) (Pythium ultimum [2]; [3]): 1; Number of sound peas after 3 wks. (Pythium ultimum [2]; 10 mg active ingr. per liter of soil, 25 grains seeded): 21; Root evaluation (1-4) (Pythium ultimum [2]; [4]): 4; Root evaluation (1-4) (Pythium ultimum [2]; [5]): 4

Compound	minimal effective concentration (Pythium ultimum [1])	further results
CCS(=O)(=O)c1nnc(CBr)s1 [Compound 31, 2-bromomethyl-5-ethylsulfonyl-1,3,4-thiadiazole]	50 µg/mL	
C[S+]([O-])c1nnc(CF)s1 (stereo not shown) [Compound 33, 2-fluoromethyl-5-methylsulfinyl-1,3,4-thiadiazole]	50 µg/mL	
CS(=O)(=O)c1nnc(CF)s1 [Compound 34, 2-fluoromethyl-5-methylsulfonyl-1,3,4-thiadiazole]	50 µg/mL	
CC(C)C[S+]([O-])c1nnc(C(F)(F)F)s1 (stereo not shown) [Compound 37, 2-trifluoromethyl-5-isobutylsulfinyl-1,3,4-thiadiazole]	30 µg/mL	
CCCCC[S+]([O-])c1nnc(C(F)(F)F)s1 (stereo not shown) [Compound 38, 2-trifluoromethyl-5-pentylsulfinyl-1,3,4-thiadiazole]	100 µg/mL	
CCCCCC[S+]([O-])c1nnc(C(F)(F)F)s1 (stereo not shown) [Compound 39, 2-trifluoromethyl-5-hexylsulfinyl-1,3,4-thiadiazole]	100 µg/mL	
CC(C)S(=O)(=O)c1nnc(C(F)(F)F)s1 [Compound 41, 2-trifluoromethyl-5-isopropylsulfonyl-1,3,4-thiadiazole]	10 µg/mL	
CC(C)CS(=O)(=O)c1nnc(C(F)(F)F)s1 [Compound 42, 2-trifluoromethyl-5-isobutylsulfonyl-1,3,4-thiadiazole]	20 µg/mL	
CCCCCCS(=O)(=O)c1nnc(C(F)(F)F)s1 [Compound 43, 2-trifluoromethyl-5-hexylsulfonyl-1,3,4-thiadiazole]	> 100 µg/mL	
CCCCCCCS(=O)(=O)c1nnc(C(F)(F)F)s1 [Compound 44, 2-trifluoromethyl-5-heptylsulfonyl-1,3,4-thiadiazole]	> 100 µg/mL	
CS(=O)(=O)c1nnc(C(F)(F)C(F)(F)F)s1 [Compound 45, 2-pentafluoroethyl-5-methylsulfonyl-1,3,4-thiadiazole]	100 µg/mL	
CC(Cl)(Cl)c1nnc(S(C)(=O)=O)s1 [Compound 47, 2-(1,1-dichloroethyl)-5-methylsulfonyl-1,3,4-thiadiazole]	80 µg/mL	
CCC(Cl)c1nnc([S+](C)[O-])s1 (stereo not shown) [Compound 48, 2-(1-chloropropyl)-5-methylsulfinyl-1,3,4-thiadiazole]	> 100 µg/mL	
CCC(Cl)c1nnc(S(C)(=O)=O)s1 (stereo not shown) [Compound 49, 2-(1-chloropropyl)-5-methylsulfonyl-1,3,4-thiadiazole]	100 µg/mL	
CC(Br)c1nnc(S(C)(=O)=O)s1 (stereo not shown) [Compound 50, 2-(1-bromethyl)-5-methylsulfonyl-1,3,4-thiadiazole]	40 µg/mL	
CC(C)C(Br)c1nnc(S(C)(=O)=O)s1 (stereo not shown) [Compound 51, 2-(1-bromisobutyl)-5-methylsulfonyl-1,3,4-thiadiazole]	> 100 µg/mL	
CCCCC(Br)c1nnc(S(C)(=O)=O)s1 (stereo not shown) [Compound 52, 2-(1-bromopentyl)-5-methylsulfonyl-1,3,4-thiadiazole]		Limit concentration of fungicidal effectiveness, Pythium ultimum (Pythium ultimum [1]): no effect
CC(C)CC(Br)c1nnc(S(C)(=O)=O)s1 (stereo not shown) [Compound 53, 2-(1-bromisopentyl)-5-methylsulfonyl-1,3,4-thiadiazole]		Limit concentration of fungicidal effectiveness, Pythium ultimum (Pythium ultimum [1]): no effect
O=[N+]([O-])c1c(Cl)c(Cl)c(Cl)c(Cl)c1Cl [Pentachloronitrobenzene, reference compound]		Root evaluation (1-4) (Rhizoctonia solani; [6]): 1; Number of sound peas after 3 wks. (Rhizoctonia solani; [6]): 4; Root evaluation (1-4) (Rhizoctonia solani; [7]): 4; Number of sound peas after 3 wks. (Rhizoctonia solani; [7]): 25
